# In patent publication US9062018B2, “Crytalline form of 13-[(N-tert-butoxycarbonyl)-2′-O-hexanoyl-3-phenylisoserinyl]-10-deacetylbaccatin III” (Indena S.p.A, priority 2010, dated 2015):
# What was measured:
# [1] = Stability data at 25±2° C. and 60±5% relative humidity of amorphous and Form A of compound (1); assay type: physicochemical; settings: for HPLC assay (%) of compound (1) with reference to the anhydrous and solvent free basis / IR identification / Potential impurity-HPLC (area %): 10-dehydro compound (1): 25±2° C.; for HPLC assay (%) of compound (1) with reference to the anhydrous and solvent free basis / IR identification / Potential impurity-HPLC (area %): 10-dehydro compound (1) / Specific optical rotation (°) (c = 1 ethanol, at 20° C.): 60±5% relative humidity; for Specific optical rotation (°) (c = 1 ethanol, at 20° C.): storage 25±2° C.
# Protocol: Stability data at 25±2° C. and 60±5% relative humidity of amorphous and Form A of compound (1). The packaging was the same for both solid forms (Amber glass vial+polyethylene bag+vacuum sealed PET/Aluminum/PE multilayer bag).
# [2] = ICH stability studies (chemical stability of the solid form); assay type: physicochemical; settings: mainly an impurity stemming from oxidation of the 10-position of the baccatin core
# Source text: Thus it is desirable to find a crystalline form of compound (1) which is chemically and thermodynamically stable. A method for preparing such solid form of compound (1) continually and constantly is also a prerequisite for the development of a robust manufacturing process.
# [3] = T = 0, against the reference FTIR figure of the form
# [4] = T = 0, amber glass vial + polyethylene bag + vacuum sealed PET/Aluminum/PE multilayer bag
Structure (SMILES),HPLC assay (%) of compound (1) with reference to the anhydrous and solvent free basis ([1]; 3 months),IR identification ([1]; 3 months),Potential impurity-HPLC (area %): 10-dehydro compound (1) ([1]; 3 months),"Specific optical rotation (°) (c = 1 ethanol, at 20° C.) ([1]; 3 months)",HPLC assay (%) of compound (1) with reference to the anhydrous and solvent free basis ([1]; 6 months),IR identification ([1]; 6 months),Potential impurity-HPLC (area %): 10-dehydro compound (1) ([1]; 6 months),"Specific optical rotation (°) (c = 1 ethanol, at 20° C.) ([1]; 6 months)",Potential impurity-HPLC (area %): 10-dehydro compound (1) ([1]; T = 0),"IR identification [1, 3]","HPLC assay (%) of compound (1) with reference to the anhydrous and solvent free basis [1, 4]","Specific optical rotation (°) (c = 1 ethanol, at 20° C.) ([1]; T = 0)",Chemical stability during ICH stability studies [2],Oxidation of the 10-position of the baccatin core ([1]; solid form on storage)
"CCCCCC(=O)OC(C(=O)OC1CC2(O)C(OC(=O)c3ccccc3)C3C4(OC(C)=O)COC4CC(O)C3(C)C(=O)C(O)C(=C1C)C2(C)C)C(NC(=O)OC(C)(C)C)c1ccccc1 (centres unmarked) [Amourphous Form of compound (1), 13-[(N-tert-butoxycarbonyl)-2′-O-hexanoyl-3-phenylisoserinyl]-10-deacetylbaccatin III]",99.0%,Complies,0.36% area %,−46.3 °,98.9%,Complie,0.53% area %,−46.0 °,0.29% area %,Complies with,99.7%,−46.0 °,problems of chemical stability,–
"CCCCCC(=O)OC(C(=O)OC1CC2(O)C(OC(=O)c3ccccc3)C3C4(OC(C)=O)COC4CC(O)C3(C)C(=O)C(O)C(=C1C)C2(C)C)C(NC(=O)OC(C)(C)C)c1ccccc1 (centres unmarked) [Form A of compound (1), 13-[(N-tert-butoxycarbonyl)-2′-O-hexanoyl-3-phenylisoserinyl]-10-deacetylbaccatin III]",99.0%,Complies,0.29% area %,−46.3 °,99.1%,Complies,0.29% area %,−46.3 °,0.29% area %,Complies with,99.0%,−46.2 °,–,prevented
